From patent publication US20240425523A1, “Compounds for the Degradation of EGFR Kinase” (Beigene Switzerland GMBH, priority 2023, published 2024)

Legend:
Format in all cases: cell-based
[1] = target: T1, EGFR L858R (BaF3-L858R cells) (Homo sapiens, UniProt P00533, L858R); experiment: Cell degradation of EGFR, HTRF assay, BaF3-L858R cells; details: 16 h treatment; for DC50: EGFR degradation; for Dmax: maximum percentage of degradation
T1 construct: host or cells: BaF3
How it was run: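 EGFR L858R levels measured by HTRF antibody pair in lysed BaF3-L858R cells after 16 h compound exposure (8-point 5-fold series from 10 uM final, 37° C). Degradation is relative to DMSO-only cells; DC50 fitted with Hill equation, Dmax taken as the largest percent loss.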

[2] = target: T2, EGFR-L858R/C797S (H1975-clone #8 cells) (Homo sapiens, UniProt P00533, C797S/L858R); experiment: Cell degradation of EGFR, HTRF assay, H1975-clone#8 (L858R/C797S) cells; details: 16 h treatment; for DC50: EGFR degradation; for Dmax: maximum percentage of degradation
T2 construct: expressed in transfected cells; host or cells: H1975 (endogenous EGFR knocked out, clone #8)

[3] = target: T3, p-EGFR L858R (BaF3-L858R cells) (Homo sapiens, UniProt P00533, L858R); experiment: Cell p-EGFR inhibition assay, HTRF, BaF3-L858R cells; details: 16 h treatment; for Imax (%): maximum percentage of pEGFR inhibition; for IC50: pEGFR inhibition
T3 construct: host or cells: BaF3
How it was run: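 BaF3-L858R cells treated 16 h at 37 °C, 5% CO2 with compound from 10 uM top, 5-fold dilutions, 8 doses, in 0.1% DMSO medium. Lysates read overnight by HTRF p-EGFR antibodies; IC50 fitted to four-parameter curve against DMSO high control.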

[4] = target: p-EGFR Del19/C797S (H1975-clone #23 cells) (Homo sapiens, UniProt P00533); experiment: Cell p-EGFR inhibition assay, HTRF, H1975-clone#23 (DEL19/C797S) cells; details: 16 h treatment; for Imax (%): maximum percentage of pEGFR inhibition; for IC50: pEGFR inhibition
How it was run: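 Phospho-EGFR read by overnight HTRF on lysates, normalized to DMSO-treated high control; IC50, Hill slope and Imax fitted. Compounds were applied for 16 h (10 uM top, 5-fold steps, 8 doses) to an H1975 single clone carrying only exogenous Del19/C797S EGFR after sgRNA knockout of endogenous copies.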

| DC50 [1] | Dmax [1] | DC50 [2] | Dmax [2] | Imax (%) [3] | IC50 [3] | Imax (%) [4] | IC50 [4] | Compound |
| --- | --- | --- | --- | --- | --- | --- | --- | --- |
| 7.56 nM | 89.7% | 4.41 nM | 100% | 101.37% | 6.66 nM | 102.48% | 3.18 nM | Cc1cc2cc(n1)-c1c(C)nn(C)c1OC[C@H]1CC[C@H](C1)CN1/C(=N/C2=O)Nc2ccc(N3[C@@H](C)CN(C4CCN(c5cc(F)c([C@H]6CCC(=O)NC6=O)c(F)c5)CC4)C[C@@H]3C)cc21 [Example 198, (R)-3-(4-(4-((3S,5S)-3,5-dimethyl-4-((7^1R,7^3S,E)-1^1,1^3,2^6-trimethyl-3-oxo-5^2,5^3-dihydro-1^1H,5^1H-9-oxa-4-aza-5(2,1)-benzo[d]imidazola-2(2,4)-pyridina-1(4,5)-pyrazola-7(1,3)-cyclopentanacyclononaphane-5^6-yl)piperazin-1-yl)piperidin-1-yl)-2,6-difluorophenyl)piperidine-2,6-dione] |
| 1.04 nM | 91.9% | 1.7 nM | 87.5% | 88.5% | 1.5 nM | 100.67% | 1.4 nM | COC[C@H]1CN(c2ccc3c(c2)N2C[C@@H]4CC[C@H](COc5c(c(C)nn5C)-c5cc(cc(C)n5)C(=O)/N=C/2N3)C4)CCN1C1CCN(c2ccc(NC3CCC(=O)NC3=O)cc2C)CC1 (stereo partly drawn) [Example 207, 3-((4-(4-((R)-2-(methoxymethyl)-4-((7R,7^3S,E)-1^1,1^3,2^6-trimethyl-3-oxo-5^2,5^3-dihydro-1^1H,5^1H-9-oxa-4-aza-5(2,1)-benzo[d]imidazola-2(2,4)-pyridina-1(4,5)-pyrazola-7(1,3)-cyclopentanacyclononaphane-5^6-yl)piperazin-1-yl)piperidin-1-yl)-3-methylphenyl)amino)piperidine-2,6-dione] |
| 2.94 nM | 89.3% | 0.73 nM | 88.7% | 90.84% | 0.528 nM | 99.88% | 0.769 nM | Cc1cc2cc(n1)-c1c(C)nn(C)c1OC[C@H]1CC[C@H](C1)CN1/C(=N/C2=O)Nc2ccc(N3C[C@H](C)N(C4CCN(c5cc(F)c([C@H]6CCC(=O)NC6=O)c(F)c5)CC4)C[C@H]3C)cc21 [Example 191, (R)-3-(4-(4-((2S,5R)-2,5-dimethyl-4-((7^1R,7^3S,E)-1^1,1^3,2^6-trimethyl-3-oxo-5^2,5^3-dihydro-1^1H,5^1H-9-oxa-4-aza-5(2,1)-benzo[d]imidazola-2(2,4)-pyridina-1(4,5)-pyrazola-7(1,3)-cyclopentanacyclononaphane-5^6-yl)piperazin-1-yl)piperidin-1-yl)-2,6-difluorophenyl)piperidine-2,6-dione] |
| 1.06 nM | 92.5% | 4.8 nM | 87.9% | 92% | 9.25 nM | 100.52% | 2.48 nM | Cc1cc2cc(n1)-c1c(C)nn(C)c1OC[C@H]1CC[C@H](C1)CN1/C(=N/C2=O)Nc2ccc(N3CCN(C4CCN(c5cc(F)c([C@H]6CCC(=O)NC6=O)c(F)c5)CC4)C[C@H]3CF)cc21 [Example 202, (R)-3-(2,6-difluoro-4-(4-((S)-3-(fluoromethyl)-4-((7R,7^3S,E)-1^1,1^3,2^6-trimethyl-3-oxo-5^2,5^3-dihydro-1^1H,5^1H-9-oxa-4-aza-5(2,1)-benzo[d]imidazola-2(2,4)-pyridina-1(4,5)-pyrazola-7(1,3)-cyclopentanacyclononaphane-5^6-yl)piperazin-1-yl)piperidin-1-yl)phenyl)piperidine-2,6-dione] |
| 2.18 nM | 88.3% | 0.63 nM | 82.5% | 88.33% | 0.871 nM | 98.77% | 1.69 nM | Cc1cc2cc(n1)-c1c(C)nn(C)c1OC[C@H]1CC[C@H](C1)CN1/C(=N/C2=O)Nc2ccc(N3CCC(N4CCC(Nc5cc(F)c([C@H]6CCC(=O)NC6=O)c(F)c5)CC4)CC3)cc21 (single isomer, unassigned) [Example 213] |

The next lines start with the molecule.

| Compound | DC50 [1] | Dmax [1] | DC50 [2] | Dmax [2] | Imax (%) [3] | IC50 [3] | Imax (%) [4] | IC50 [4] |
| --- | --- | --- | --- | --- | --- | --- | --- | --- |
| COC[C@@H]1CN(c2ccc3c(c2)N2C[C@@H]4CC[C@H](COc5c(cnn5C)-c5cc(cc(C)n5)C(=O)/N=C/2N3)C4)CCN1CC1CN(c2ccc3c(c2)CN(C2CCC(=O)NC2=O)C3=O)C1 (stereo partly drawn) [Example 63, 3-(5-(3-(((S)-4-((7^1R,7^3S,E)-1^1,2^6-dimethyl-3-oxo-5^2,5^3-dihydro-1^1H,5^1H-9-oxa-4-aza-5(2,1)-benzo[d]imidazola-2(2,4)-pyridina-1(4,5)-pyrazola-7(1,3)-cyclopentanacyclononaphane-5^6-yl)-2-(methoxymethyl)piperazin-1-yl)methyl)azetidin-1-yl)-1-oxoisoindolin-2-yl)piperidine-2,6-dione] | 0.55 nM | 90% | 0.61 nM | 60.9% | 103% | 0.2 nM | 100.6% | 0.2 nM |
| Cc1cc2cc(n1)-c1c(C)nn(C)c1OC[C@H]1CC[C@H](C1)CN1/C(=N/C2=O)Nc2ccc(N(C)C3CCN(C4CCN(c5cc(F)c([C@H]6CCC(=O)NC6=O)c(F)c5)CC4)CC3)cc21 [Example 143, (R)-3-(2,6-difluoro-4-(4-(methyl((7^1R,7^3S,E)-1^1,1^3,2^6-trimethyl-3-oxo-5^2,5^3-dihydro-1^1H,5^1H-9-oxa-4-aza-5(2,1)-benzo[d]imidazola-2(2,4)-pyridina-1(4,5)-pyrazola-7(1,3)-cyclopentanacyclononaphane-5^6-yl)amino)-[1,4′-bipiperidin]-1-yl)phenyl)piperidine-2,6-dione] | 5.23 nM | 74.3% | 1.51 nM | 82% | 98.2% | 7.8 nM | 101.28% | 1.15 nM |
| Cc1cc2cc(n1)-c1cnn(C)c1OC[C@H]1CCC(C1)CN1/C(=N/C2=O)Nc2ccc(N3CCN(C4CCN(c5ccc(NC6CCC(=O)NC6=O)cc5Cl)CC4)CC3)cc21 (stereo partly shown) [Example 103, 3-((3-chloro-4-(4-(4-((7^1R,7^3S,E)-1^1,2^6-dimethyl-3-oxo-5^2,5^3-dihydro-1^1H,5^1H-9-oxa-4-aza-5(2,1)-benzo[d]imidazola-2(2,4)-pyridina-1(4,5)-pyrazola-7(1,3)-cyclopentanacyclononaphane-5^6-yl)piperazin-1-yl)piperidin-1-yl)phenyl)amino)piperidine-2,6-dione] | 3.38 nM | 81.6% | 2.53 nM | 83.3% | 95.6% | 16.3 nM | 102% | 0.8 nM |
| COC[C@@H]1CN(c2ccc3c(c2)N2CC4CC[C@H](COc5c(c(C)nn5C)-c5cc(cc(C)n5)C(=O)/N=C/2N3)C4)CCN1C1CCN(c2c(F)cc(NC3CCC(=O)NC3=O)cc2F)CC1 (stereo partly drawn) [Example 133, 3-((3,5-difluoro-4-(4-((S)-2-(methoxymethyl)-4-((7R,7^3S,E)-1^1,1^3,2^6-trimethyl-3-oxo-5^2,5^3-dihydro-1^1H,5^1H-9-oxa-4-aza-5(2,1)-benzo[d]imidazola-2(2,4)-pyridina-1(4,5)-pyrazola-7(1,3)-cyclopentanacyclononaphane-5^6-yl)piperazin-1-yl)piperidin-1-yl)phenyl)amino)piperidine-2,6-dione] | 2.36 nM | 85.7% | 2.94 nM | 86.5% | 96.88% | 2.88 nM | 99.55% | 1.45 nM |
| COC[C@H]1CN(c2ccc3c(c2)N2CC4CC[C@H](COc5c(c(C)nn5C)-c5cc(cc(C)n5)C(=O)/N=C/2N3)C4)CCN1C1CCN(c2cc(F)c([C@H]3CCC(=O)NC3=O)c(F)c2)CC1 [Example 91, (R)-3-(2,6-difluoro-4-(4-((R)-2-(methoxymethyl)-4-((7R,7^3S,E)-1^1,1^3,2^6-trimethyl-3-oxo-5^2,5^3-dihydro-1^1H,5^1H-9-oxa-4-aza-5(2,1)-benzo[d]imidazola-2(2,4)-pyridina-1(4,5)-pyrazola-7(1,3)-cyclopentanacyclononaphane-5^6-yl)piperazin-1-yl)piperidin-1-yl)phenyl)piperidine-2,6-dione] | 2.04 nM | 81.5% | 2.28 nM | 88.7% | 97.1% | 3.5 nM | 100.8% | 2.2 nM |
| COC[C@@H]1CN(c2ccc3c(c2)N2C[C@@H]4CCC(COc5c(c(C)nn5C)-c5cc(cc(C)n5)C(=O)/N=C/2N3)C4)CCN1C1CN(C2CCN(c3cc(F)c([C@H]4CCC(=O)NC4=O)c(F)c3)CC2)C1 [Example 121, (R)-3-(2,6-difluoro-4-(4-(3-((S)-2-(methoxymethyl)-4-((7R,7^3S,E)-1^1,1^3 2^6-trimethyl-3-oxo-5^2,5^3-dihydro-1^1H,5^1H-9-oxa-4-aza-5(2,1)-benzo[d]imidazola-2(2,4)-pyridina-1(4,5)-pyrazola-7(1,3)-cyclopentanacyclononaphane-5^6-yl)piperazin-1-yl)azetidin-1-yl)piperidin-1-yl)phenyl)piperidine-2,6-dione] | 1.06 nM | 82.2% | 0.98 nM | 88.3% | 96.6% | 6 nM | 100.8% | 0.7 nM |
